Assay results: patent publication US10711230B2, “N-acyl proline derivatives as food flavoring compounds” (Givaudan S.A., priority 2012, dated 2020)

Columns and labels:
[1] = Expert taster evaluation in orange beverage; conditions: 1 ppm in base (water, 7% sugar, 0.1% citric acid, orange flavour 0.06%); base alone: orange, fruity, slightly candy
Protocol: (§1) Samples were evaluated by expert tasters. Tasters were asked to describe the samples focusing on authentic taste, mouthfeel, fullness, salty-ness, salivation, umami, sweetness, juiciness, richness, long lastingness and fattiness.
Base is water, 7% sugar, 0.1% citric acid, proprietary orange flavour @ 0.06%.

[2] = Expert taster evaluation in lemon beverage; conditions: 1 ppm in base (water, 7% sucrose, 0.15% citric acid, lemon flavor), base alone: floral, citral
Protocol: as §1
Basis water, 7% sucrose, 0.15% citric acid, proprietary lemon flavor

[3] = Expert taster evaluation in beef bouillon; conditions: 1 ppm in base (Maggi beef bouillon, 1 tablet in 500 ml hot water); base alone: salty, umami, powdery
Protocol: as §1
Base is Maggi beef bouillon 1 tablet in 500 ml of hot water

[4] = Expert taster evaluation in a mango juice drink; conditions: 1 ppm in base (water, 8% sucrose, 0.1% citric acid, 1% clear mango juice, mango flavour 0.05%); base alone: fruity mango
Protocol: as §1
Comparison in a Mango Juice Drink
Base is water, 8% sucrose, 0.1% citric acid, 1% clear mango juice, proprietary mango flavour @ 0.05%

Compound | taste description in orange beverage [1] | taste description in lemon beverage [2] | taste description in bouillon [3] | taste description in mango juice drink [4]
CCCCC/C=C\C/C=C\CCCCCCCC(=O)N1CCC[C@H]1C(=O)O [C18:2-pro, N-linoleoyl-Pro] | very juicy, authentic orange | very juicy, more citral like, very authentic |  | 
CCCCCCCCCCCCCCCC(=O)N1CCCC1C(=O)O (stereo not shown) [C16:0-pro, N-palmitoyl-Pro] |  |  | more salty, full, darker, more meat-like | overripe, orange like, long lasting after taste
